Source: patent US20140357487A1, “PLANTS HAVING INCREASED TOLERANCE TO HERBICIDES” (BASF SE, priority 2011, published 2014)

How the values were obtained:
Format in all cases: biochemical
Conditions in all cases: normalized on Arabidopsis wild-type HPPD
Blepharisma HPPD = test: HPPD activity assay, Blepharisma HPPD
Experimental: (§1) HPPD produces homogentisic acid and CO2 from 4-hydroxyphenylpyruvate (4-HPP) and O2. The activity assay for HPPD is based on the analysis of homogentisic acid by reversed phase HPLC.
(§2) The assay mixture can contain 150 mM potassium phosphate buffer pH 7.0, 50 mM L-ascorbic acid, 1 μM FeSO4 and 7 μg of purified enzyme in a total volume of 1 ml.
Inhibitors are dissolved in DMSO (dimethylsulfoxide) to a concentration of 20 mM or 0.5 mM, respectively. From this stock solution serial five-fold dilutions are prepared in DMSO, which are used in the assay. The respective inhibitor solution accounts for 1% of the assay volume. […]
Activities are normalized by setting the uninhibited enzyme activity to 100%. IC50 values are calculated using non-linear regression. […]
(§3) Inhibitors are dissolved in DMSO (dimethylsulfoxide) to a concentration of 0.5 mM. […] IC50 values are calculated using non-linear regression.
Using methods which are described in the above examples or well known in the art, purified, recombinant wildtype HPPD enzymes are characterized with respect to their kinetic properties and sensitivity towards HPPD inhibiting herbicides. Apparent michaelis constants (Km) and maximal reaction velocities (Vmax) are calculated by non-linear regression with the software GraphPad Prism 5 (GraphPad Software, La Jolla, USA) using a substrate inhibition model. […]

[1] = target: T1, Arabidopsis HPPD variant M335H, P336A (Arabidopsis thaliana, UniProt P93836, M335H/P336A); test: HPPD activity assay, Arabidopsis HPPD mutant M335H, P336A
T1 construct: PCR-based site directed mutagenesis of pEXP5-NT/TOPO®-AtHPPD is done; His6 (N); made in house; host or cells: E. coli BL21 (DE3)
Experimental: as §1, §2
Inhibitors are dissolved in DMSO (dimethylsulfoxide) to a concentration of 20 mM or 0.5 mM, respectively. From this stock solution serial five-fold dilutions are prepared in DMSO, which are used in the assay. The respective inhibitor solution accounts for 1% of the assay volume. […] After a preincubation of 30 min the reaction is started by adding 4-HPP to a final concentration of 0.1 mM. The reaction is allowed to proceed for 120 min at room temperature. The reaction is stopped by addition of 100 μl of 4.5 M phosphoric acid.
(§4) Activities are normalized by setting the uninhibited enzyme activity to 100%. IC50 values are calculated using non-linear regression.
The assay mixture can contain 150 mM potassium phosphate buffer pH 7.0, 50 mM L-ascorbic acid, 100 μM Catalase (Sigma-Aldrich), 1 μM FeSO4 and 0.2 units of purified HPPD enzyme in a total volume of 505 μl. 1 unit is defined as the amount of enzyme that is required to produce 1 nmol of HGA per minute at 20° C.
Inhibitors are dissolved in DMSO (dimethylsulfoxide) to a concentration of 0.5 mM. […] IC50 values are calculated using non-linear regression. […]
Purified, mutant HPPD enzymes are obtained by the methods described above. […] Apparent michaelis constants (Km) and maximal reaction velocities (Vmax) are calculated by non-linear regression with the software GraphPad Prism 5 (GraphPad Software, La Jolla, USA) using a substrate inhibition model.
Field performance of the optimized HPPD enzyme, which is used as a herbicide tolerance trait may depend not only on its lack of sensitivity towards HPPD inhibiting herbicides but also on its activity. To assess the potential performance of a herbicide tolerance trait a tolerance index (TI) is calculated using the following formula: […]

Alopecurus HPPD = test: HPPD activity assay, Alopecurus HPPD
Experimental: as §1, §2
Inhibitors are dissolved in DMSO (dimethylsulfoxide) to a concentration of 20 mM or 0.5 mM, respectively. From this stock solution serial five-fold dilutions are prepared in DMSO, which are used in the assay. The respective inhibitor solution accounts for 1% of the assay volume. Thus, final inhibitor concentrations range from 200 μM to 2.5 nM or from 5 μM to 63 pM, respectively. After a preincubation of 30 min the reaction is started by adding 4-HPP to a final concentration of 0.1 mM. The reaction is allowed to proceed for 120 min at room temperature. The reaction is stopped by addition of 100 μl of 4.5 M phosphoric acid.
as §4
The assay mixture can contain 150 mM potassium phosphate buffer pH 7.0, 50 mM L-ascorbic acid, 100 μM Catalase (Sigma-Aldrich), 1 μM FeSO4 and 0.2 units of purified HPPD enzyme in a total volume of 505 μl. […]
as §3
Using methods which are described in the above examples or well known in the art, purified, recombinant wildtype HPPD enzymes are characterized with respect to their kinetic properties and sensitivity towards HPPD inhibiting herbicides. Apparent michaelis constants (Km) and maximal reaction velocities (Vmax) are calculated by non-linear regression with the software GraphPad Prism 5 (GraphPad Software, La Jolla, USA) using a substrate inhibition model. […] Weighted means (by standard error) of Km and […] values are calculated from at least three independent experiments. […]

T1 sequence (P93836 whole entry M335H/P336A): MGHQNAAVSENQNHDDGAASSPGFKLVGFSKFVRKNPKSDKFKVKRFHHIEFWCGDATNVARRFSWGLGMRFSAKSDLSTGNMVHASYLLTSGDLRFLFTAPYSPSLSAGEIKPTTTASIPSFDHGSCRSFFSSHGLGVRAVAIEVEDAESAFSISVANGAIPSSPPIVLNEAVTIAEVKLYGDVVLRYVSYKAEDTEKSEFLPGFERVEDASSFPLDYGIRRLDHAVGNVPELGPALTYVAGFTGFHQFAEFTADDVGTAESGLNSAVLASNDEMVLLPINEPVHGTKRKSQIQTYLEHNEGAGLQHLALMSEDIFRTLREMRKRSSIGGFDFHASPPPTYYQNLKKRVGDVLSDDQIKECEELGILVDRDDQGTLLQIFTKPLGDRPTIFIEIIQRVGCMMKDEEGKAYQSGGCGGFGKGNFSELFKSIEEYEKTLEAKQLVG

COCCOCc1c(Cl)ccc(C2=C(O)c3ncccc3C(C)(C)S2(=O)=O)c1Cl [Inhibitor 3, 7-[2,4-dichloro-3-(2-methoxyethoxymethyl)phenyl]-5,5-dimethyl-6,6-dioxo-thiopyrano[4,3-b]pyridin-8-ol]
Normalized tolerance index TI (Blepharisma HPPD): 0.5

CC1(C)c2cccnc2C(O)=C(c2ccc(Cl)nc2Cl)S1(=O)=O [Inhibitor 2, 7-(2,6-dichloro-3-pyridyl)-5,5-dimethyl-6,6-dioxo-thiopyrano[4,3-b]pyridin-8-ol]
Normalized tolerance index TI [1]: 2.8 | Normalized tolerance index TI (Alopecurus HPPD): 1.4

CC1=NOC(c2c(Cl)ccc(C3=C(O)c4ncccc4C(C)(C)S3(=O)=O)c2Cl)C1 (stereo not drawn) [Inhibitor 1, 7-[2,4-dichloro-3-(3-methyl-4,5-dihydroisoxazol-5-yl)phenyl]-5,5-dimethyl-6,6-dioxo-thiopyrano[4,3-b]pyridin-8-ol]
Normalized tolerance index TI [1]: 1.9 | Normalized tolerance index TI (Alopecurus HPPD): 2.5 | Normalized tolerance index TI (Blepharisma HPPD): 12.4
